# Measured values published in US20050148633A1 (priority 2003, published 2005).
# Tested on: IL-2 production
# Experiment: Inhibition of IL-2 production in PHA-activated Jurkat cells (ELISA)
# Assay type: cell-based
# Details: Homo sapiens, PHA 2.5 μg/mL, 20 hours, value bins
# Protocol: Jurkat cells were placed in a 96 well plate (0.5 million cells per well in 1% FBS medium) then test compounds of this invention were added at different concentrations. After 10 minutes, the cells were activated with PHA (final concentration 2.5 μg/mL) and incubated for 20 hours at 37° C. under CO2. The final volume was 200 μL. Following incubation, the cells were centrifuged and the supernatants collected and stored at −70° C. prior to assaying for IL-2 production. A commercial ELISA kit (IL-2 Eli-pair, Diaclone Research, Besancon, France) was used to detect production of IL-2, from which dose response curves were obtained. The IC50 value was calculated as the concentration at which 50% of maximum IL-2 production after stimulation was inhibited versus a non-stimulation control.
row,SMILES,IC50
1,"Cc1ccccc1-c1ccc(NC(=O)c2ccncc2F)cc1 [Compound 2, 3-Fluoro-N-(2′-methyl-biphenyl-4-yl)-isonicotinamide]",0.1 to 0.5 µM
2,"Cc1cnccc1C(=O)Nc1ccc(-c2ccccc2C(C)C)cc1 [Compound 77, 3-methyl-pyridine-4-carboxylic acid (2′-isopropyl-biphenyl-4-yl)-amide]",0.1 to 0.5 µM
3,"Cc1ccc(C)c(-c2ccc(NC(=O)c3ccncc3C)cc2)c1 [Compound 70, 3-methyl-pyridine-4-carboxylic acid (2′,5′-dimethylbiphenyl-4-yl)-amide]",0.1 to 0.5 µM
4,"Cn1cncc1C(=O)Nc1ccc(-c2cc(C(F)(F)F)ccc2C(F)(F)F)cc1 [Compound 62, 1-methyl-1H-imidazole-5-carboxylic acid (2′,5′-bis-trifluoromethyl-biphenyl-4-yl)-amide]",0.1 to 0.5 µM
5,"Cc1nnsc1C(=O)Nc1ccc(-c2cc(C(F)(F)F)ccc2Cl)cc1 [Compound 27, 4-Methyl-[1,2,3]thiadiazole-5-carboxylic acid (2′-chloro-5′-trifluoromethyl-biphenyl-4-yl)-amide]",< 0.1 µM
6,"Cc1cnccc1C(=O)Nc1ccc(-c2cc(C(F)(F)F)ccc2C(F)(F)F)cc1 [Compound 64, 3-methyl-pyridine-4-carboxylic acid (2′,5′-bis-trifluoromethyl-biphenyl-4-yl)-amide]",< 0.1 µM
7,"COc1ccc(OC)c(-c2ccc(NC(=O)c3snnc3C)cc2)c1 [Compound 58, 4-methyl-[1,2,3]-thiadiazole-5-carboxylic acid (2′,5′-dimethoxy-biphenyl-4-yl)-amide]",< 0.1 µM
8,"Cc1cnccc1C(=O)Nc1ccc(-c2cc(C(F)(F)F)ccc2Cl)cc1 [Compound 74, 3-methyl-pyridine-4-carboxylic acid (2′-chloro-5′-trifluoromethylbiphenyl-4-yl)-amide]",< 0.1 µM
9,"COc1ccc(Cl)cc1-c1ccc(NC(=O)c2cc(F)c(F)cc2F)cc1 [Compound 84, N-(2′-methoxy-5′-chloro-biphenyl-4-yl)-2,4,5-trifluorobenzamide]",< 0.1 µM
10,"Cc1cc2ccccn2c1-c1ccc(NC(=O)c2snnc2C)cc1 [Compound 91, 4-methyl-N-[4-(2-methyl-indolizin-3-yl)-phenyl]-[1,2,3]thiadiazole 5-carboxylic acid amide]",0.1 to 0.5 µM
11,"O=C(Nc1ccc(-c2cc(Cl)ccc2OC(F)F)cc1)c1ccncc1F [Compound 72, 3-fluoro-pyridine-4-carboxylic acid (2′-difluoromethoxy-5′-chlorobiphenyl-4-yl)-amide]",< 0.1 µM
12,"O=C(Nc1ccc(-c2cc(C(F)(F)F)ccc2C(F)(F)F)cc1)c1cc(F)ccc1F [Compound 28, N-(2′,5′-Bis-trifluoromethyl-biphenyl-4-yl)-2,5-difluoro-benzamide]",< 0.1 µM
13,"O=C(Nc1ccc(-c2cc(C(F)(F)F)ccc2C(F)(F)F)cc1)c1ccncc1F [Compound 68, 3-fluoro-pyridine-4-carboxylic acid (2′,5′-bis-trifluoromethylbiphenyl-4-yl)-amide]",< 0.1 µM
14,"COc1ccc(C(C)=O)cc1-c1ccc(NC(=O)c2snnc2C)cc1 [Compound 71, 4-methyl-[1,2,3]-thiadiazole-5-carboxylic acid (2′-methoxy-5′-acetylbiphenyl-4-yl)-amide]",0.1 to 0.5 µM
15,"COc1ccc(OC)c(-c2ccc(NC(=O)c3ccncc3C)cc2)c1 [Compound 63, 3-methyl-pyridine-4-carboxylic acid (2′,5′-dimethoxy-biphenyl-4-yl)-amide]",< 0.1 µM
16,"Cc1nnsc1C(=O)Nc1ccc(-c2cc(OC(F)(F)F)ccc2N(C)C)cc1 [Compound 73, 4-methyl-[1,2,3]-thiadiazole-5-carboxylic acid {2′-(N,N-dimethylamino)-5′-trifluoromethoxybiphenyl-4-yl}-amide]",< 0.1 µM
17,"COc1ccc(Cl)cc1-c1ccc(NCc2c(F)cccc2F)cc1 [Compound 129, N-(2′-methoxy-5′-chloro-biphenyl-4-yl)-2,6-difluoro-benzyl amine]",< 0.1 µM
18,"O=C(Nc1ccc(-c2cc(C(F)(F)F)ccc2C(F)(F)F)cc1)c1csnn1 [Compound 41, [1,2,3]-Thiadiazole-4-carboxylic acid (2′,5′-bis-trifluoromethyl-biphenyl-4-yl)-amide]",0.1 to 0.5 µM
19,"COc1ccc(C(C)=O)cc1-c1ccc(NC(=O)c2cccc(F)c2F)cc1 [Compound 50, N-(2′-methoxy-5′-acetyl-biphenyl-4-yl)-2,3-difluorobenzamide]",< 0.1 µM
20,"O=C(Nc1ccc(-c2cc(C(F)(F)F)ccc2C(F)(F)F)cc1)c1ccno1 [Compound 42, Isoxazole-5-carboxylic acid (2′,5′-bis-trifluoromethyl-biphenyl-4-yl)-amide]",0.1 to 0.5 µM
21,"Cc1cc(C)c(-c2ccc(NC(=O)c3cccc(F)c3F)cc2)cc1C [Compound 52, N-(2′,4′,5′-trimethyl-biphenyl-4-yl)-2,3-difluorobenzamide]",< 0.1 µM

# Results, then the compound that gave them:
row,IC50,SMILES
1,0.1 to 0.5 µM,"O=C(Nc1ccc(-c2cc(C(F)(F)F)ccc2F)cc1)c1cccc(F)c1F [Compound 19, 2,3-Difluoro-N-(2′-fluoro-5′-trifluoromethyl-biphenyl-4-yl)-benzamide]"
2,< 0.1 µM,"O=C(Nc1ccc(-c2cc(C(F)(F)F)ccc2Cl)cc1)c1c(F)cccc1F [Compound 86, N-(2′-chloro-5′-trifluoromethylbiphenyl-4-yl)-2,6-difluorobenzamide]"
3,0.1 to 0.5 µM,"COc1ccccc1C(=O)Nc1ccc(-c2cc(C(F)(F)F)ccc2C(F)(F)F)cc1 [Compound 38, N-(2′,5′-bis-trifluoromethyl-biphenyl-4-yl)-2-methoxy-benzamide]"
4,< 0.1 µM,"O=C(Nc1ccc(-c2ccc(F)cc2C(F)(F)F)cc1)c1cccc(F)c1F [Compound 20, 2,3-Difluoro-N-(4′-fluoro-2′-trifluoromethyl-biphenyl-4-yl)-benzamide]"
5,< 0.1 µM,"O=C(Nc1ccc(-c2cc(C(F)(F)F)ccc2C(F)(F)F)cc1)c1c(F)cccc1F [Compound 85, N-(2′,5′-bis-trifluoromethylbiphenyl-4-yl)-2,6-difluorobenzamide]"
6,< 0.1 µM,Cc1ccccc1C(=O)Nc1ccc(-c2cc(C(F)(F)F)ccc2C(F)(F)F)cc1 [Compound 45]
7,< 0.1 µM,"O=C(Nc1ccc(-c2cc(C(F)(F)F)ccc2C(F)(F)F)cc1)c1cccc(F)c1F [Compound 18, N-(2′,5′-Bis-trifluoromethyl-biphenyl-4-yl)-2,3-difluoro-benzamide]"
8,0.1 to 0.5 µM,"O=C(Nc1ccc(-c2ccccc2C(F)(F)F)cc1)c1ccncc1F [Compound 1, 3-Fluoro-N-(2′-trifluoromethyl-biphenyl-4-yl)-isonicotinamide]"
9,0.1 to 0.5 µM,"O=C(Nc1ccc(-c2ccccc2C(F)(F)F)cc1)c1cccc(F)c1F [Compound 15, 2,3-Difluoro-N-(2′-trifluoromethyl-biphenyl-4-yl)-benzamide]"
10,0.1 to 0.5 µM,"O=C(Nc1ccc(-c2ccccc2C(F)(F)F)cc1)c1cc(F)ccc1F [Compound 16, 2,5-Difluoro-N-(2′-trifluoromethyl-biphenyl-4-yl)-benzamide]"
11,< 0.1 µM,"Cc1ccc(C)c(-c2ccc(NC(=O)c3cccc(F)c3F)cc2)c1 [Compound 47, N-(2′,5′-dimethyl-biphenyl-4-yl)-2,3-difluorobenzamide]"
12,0.1 to 0.5 µM,"O=C(Nc1ccc(-c2ccccc2C(F)(F)F)cc1)c1cnccc1C(F)(F)F [Compound 12, 4-Trifluoromethyl-N-(2′-trifluoromethyl-biphenyl-4-yl)-nicotinamide]"

# Same assay, conditions: Homo sapiens, PHA, bin 500 nM-1 μM
row,SMILES,IC50
1,O=C(Nc1ccc(-n2c(-c3cccs3)nnc2C(F)(F)F)cc1)c1cccc(F)c1F [Compound 35],0.5 to 1 µM
2,"O=C(Nc1ccc(-c2cccc(C(F)(F)F)c2)cc1)c1ccncc1F [Compound 3, 3-Fluoro-N-(3′-trifluoromethyl-biphenyl-4-yl)-isonicotinamide]",0.5 to 1 µM
3,"O=C(Nc1ccc(-c2cc(C(F)(F)F)ccc2C(F)(F)F)cc1)c1cccc2c1OCCO2 [Compound 61, 2,3-dihydro-benzo[1,4]dioxine-5-carboxylic acid (2′,5′-bis-trifluoromethyl-biphenyl-4-yl)-amide]",0.5 to 1 µM

# More lines, now with the values ahead:
row,IC50,SMILES
1,0.5 to 1 µM,"O=C(Nc1ccc(-c2ccccc2C(F)(F)F)cc1)c1cccnc1 [Compound 7, N-(2′-Trifluoromethyl-biphenyl-4-yl)-nicotinamide]"
2,0.5 to 1 µM,"O=C(Nc1ccc(-c2cc(C(F)(F)F)ccc2C(F)(F)F)cc1)c1ccccc1O [Compound 49, N-(2′,5′-bis-trifluoromethyl-biphenyl-4-yl)-2-hydroxybenzamide]"

# Same assay, conditions: Homo sapiens, PHA, bin >1 μM
row,SMILES,IC50
1,"Cc1nc(C(=O)Nc2ccc(-c3ccccc3C(F)(F)F)cc2)c(C(F)(F)F)o1 [Compound 13, 2-Methyl-5-trifluoromethyl-oxazole-4-carboxylic acid (2′-trifluoromethyl-biphenyl-4-yl)-amide]",> 1 µM
2,"CCn1nc(C)cc1C(=O)Nc1ccc(-c2ccccc2C(F)(F)F)cc1 [Compound 14, 2-Ethyl-5-methyl-2H-pyrazole-3-carboxylic acid (2′-trifluoromethyl-biphenyl-4-yl)-amide]",> 1 µM

# More lines, now with the values ahead:
row,IC50,SMILES
1,> 1 µM,"Cc1nc(C)c(C(=O)Nc2ccc(-c3ccccc3C(F)(F)F)cc2)s1 [Compound 11, 2,4-Dimethyl-thiazole-5-carboxylic acid (2′-trifluoromethyl-biphenyl-4-yl)-amide]"
2,> 1 µM,"O=C(Nc1ccc(-c2ccccc2C(F)(F)F)cc1)c1cccs1 [Compound 9, Thiophene-2-carboxylic acid (2′-trifluoromethyl-biphenyl-4-yl)-amide]"
3,> 1 µM,"O=C(Nc1ccc(-c2ccccc2C(F)(F)F)cc1F)c1cccc(F)c1F [Compound 17, 2,3-Difluoro-N-(3-fluoro-2′-trifluoromethyl-biphenyl-4-yl)-benzamide]"
